The assay deals with hPAD4 enzyme (Homo sapiens (Human), UniProt Q9UM07). Kind of assay: PAD4 assay (hPAD4-RFMS, RapidFire mass spectrometry). It is filed as biochemical. To be noted: 100 nM hPAD4, 50 μM substrate peptide, 1 mM CaCl2, 65 mins at 37° C. The method, then:
Compounds of the present invention were assayed as inhibitors of PAD4 using the assay protocol described below.
Compounds were solubilized in 100% DMSO to achieve 100 mM final compound concentration. Compound stock solutions were stored at RT. A series of dilutions were prepared in DMSO and mixed 8 times with 20 μL mixing volume. Final assay conditions were as follows:
Assay buffer (as aforementioned): 100 mM Tris-HCl (pH 7.6), 2 mM DTT, 1 mM CaCl2
Total incubation time: 65 mins at 37° C.
Stop solution: 40 μl 5% TCA in ACN
0.25 μL of compound solution was added to 10 μL of 200 nM PAD4 in assay buffer (100 mM Tris-HCl pH 7.6, 2 mM DTT). After 5 mins, 10 μL of 100 μM of substrate in buffer (100 mM Tris-HCl pH 7.6, 2 mM DTT, 2 mM CaCl2) was added and the reaction incubated for 60 mins at 37° C. The enzymatic reaction was quenched by addition of 40 μl of 5% TCA in ACN (1.7% TCA final concentration) stop solution.
The compound numbers correspond to the compound numbers in Tables 1 and 2. […] The term pIC50=−log(IC50). […] “NA” stands for “not assayed.”

[1] abbreviates: read-out: hPAD4-RFMS: IC50 (μM) (Average).
Where [2] appears, read: read-out: hPAD4-RFMS: pIC50 (Average) (converted).

Read-outs that look alike come from different tables or passages of the source.

Sequence of hPAD4 enzyme (Q9UM07 whole entry): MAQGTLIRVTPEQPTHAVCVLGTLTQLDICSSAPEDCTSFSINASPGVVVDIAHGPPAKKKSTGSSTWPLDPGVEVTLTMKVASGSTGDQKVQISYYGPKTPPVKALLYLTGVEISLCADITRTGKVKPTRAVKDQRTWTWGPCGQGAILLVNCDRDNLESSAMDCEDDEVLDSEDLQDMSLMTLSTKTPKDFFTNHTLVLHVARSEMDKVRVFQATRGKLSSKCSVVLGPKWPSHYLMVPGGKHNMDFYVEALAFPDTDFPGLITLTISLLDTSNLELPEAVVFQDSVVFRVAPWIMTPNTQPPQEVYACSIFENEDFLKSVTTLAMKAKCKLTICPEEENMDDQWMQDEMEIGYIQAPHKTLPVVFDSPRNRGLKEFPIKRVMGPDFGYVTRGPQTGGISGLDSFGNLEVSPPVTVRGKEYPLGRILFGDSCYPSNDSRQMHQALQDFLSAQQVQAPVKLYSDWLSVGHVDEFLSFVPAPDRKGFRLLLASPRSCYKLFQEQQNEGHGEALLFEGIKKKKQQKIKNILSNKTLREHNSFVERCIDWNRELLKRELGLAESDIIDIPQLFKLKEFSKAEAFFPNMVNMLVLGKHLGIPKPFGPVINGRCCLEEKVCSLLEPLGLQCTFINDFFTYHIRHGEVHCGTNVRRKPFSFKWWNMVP

In the case of `Cn1c(/C=C/C(=O)c2c(-c3ccccc3)c3ccccc3n(C)c2=O)nc2ccccc21` [Compound I-72], the IC50 under setting [1] is > 100 µM and the IC50 under setting [2] was 10 to 100 µM.

Regarding `O=C(/C=C/c1cncnc1)c1c(-c2ccccc2)c2cnccc2[nH]c1=O` [Compound I-90, 4-phenyl-3-[(2E)-3-(pyrimidin-5-yl)prop-2-enoyl]-1,2-dihydro-1,6-naphthyridin-2-one], the IC50 was > 100 µM under setting [1] and 100 to 100000 µM under setting [2].

As for `O=C(/C=C/c1cncnc1)c1c(-c2cccnc2)c2ccccc2[nH]c1=O` [Compound I-95], the IC50 is > 100 µM under setting [1] and 100 to 100000 µM under setting [2].

Take `O=C(/C=C/c1nc2ccccc2[nH]1)c1c(-c2ccccc2)c2ccccc2[nH]c1=O` [Compound I-103]: the “hPAD4-RFMS: pIC50 (Average)” value was “F (pIC50 of 4-5)”. The IC50 under setting [1] lay in the range of 20 to 100 µM.

Regarding `O=C(/C=C/c1ccccn1)c1c(-c2ccc(F)cc2)c2ccccc2[nH]c1=O` [Compound I-108], the IC50 was > 100 µM under setting [1] and 100 to 100000 µM under setting [2].

`C#CCOCCOCCOc1ccc(/C=C/C(=O)c2c(-c3ccccc3)c3ccccc3[nH]c2=O)cc1` [Compound I-109, 4-phenyl-3-[(2E)-3-(4-{2-[2-(prop-2-yn-1-yloxy)ethoxy]ethoxy}phenyl)prop-2-enoyl]-1,2-dihydroquinolin-2-one]: the IC50 was > 100 µM under setting [1] and 100 to 100000 µM under setting [2].

On to `O=C(/C=C/c1cccnc1)c1c(-c2ccccn2)c2ccccc2[nH]c1=O` [Compound I-124], for which the IC50 is > 100 µM under setting [1] and 100 to 100000 µM under setting [2].

As for `COc1ccc(/C=C/C(=O)c2c(-c3ccccc3)c3ccccc3[nH]c2=O)cc1` [Compound I-139], the IC50 by setting is: under setting [1], 3 to 20 µM; under setting [2], < 10 µM.

Consider `COc1ccc(/C=C/C(=O)c2ccc[nH]c2=O)cc1` [Compound I-151], for which the IC50 is, setting by setting: under setting [1], > 100 µM; under setting [2], 100 to 100000 µM.

For the origin of these results see patent US11026937B2, “Heteroaryl inhibitors of PAD4” (PADLOCK THERAPEUTICS, INC., priority 2016, dated 2021).
